Data as given in patent publication US10420844B2, “Peptide pharmaceuticals” (Mederis Diabetes LLC, priority 2011, dated 2019).

Legend:
mu opioid receptor = target: T1, mu opioid receptor (Homo sapiens, UniProt P35372); test: mu opioid receptor cellular assay (MOP, agonist and antagonist mode), cAMP readout, Cerep; type: cell-based
T1 construct: Cerep SA (contract research organization)
Method: (§1) Compounds were weighed precisely in an amount of approximately 2 mg and assayed in standard cellular assays by the contract research organization Cerep, Inc. (Pullman, Wash.) as executed at their subsidiary, Cerep SA (Le Bois l'Eveque, France). The readout is the amount of cAMP generated in the cells treated with the test compounds, in either agonist or antagonist mode. The assays used were the mu opioid receptor cellular assay (MOP in agonist and antagonist mode), the delta2 opioid receptor cellular assay (DOP in agonist and antagonist mode) and the kappa opioid receptor cellular assay (KOP in agonist and antagonist mode). The assays used are described in Wang, J. B., et al. (1994) FEBS Lett 338: 217-222, Law, P. Y. and Loh, H. H. (1993) Mol Pharmacol 43: 684-693, and Avidor-Reiss, T., et al. (1995) FEBS Lett 361: 70-74. The stimulant for the cells in the DOR antagonist assay was 3×10E-8M DPDPE, a well-accepted DOR literature standard.

delta2 opioid receptor = target: T2, delta2 opioid receptor (Mus musculus, UniProt P32300); test: delta2 opioid receptor cellular assay (DOP, agonist and antagonist mode), cAMP readout, Cerep; type: cell-based; conditions: in competition with 30 nM DPDPE
T2 construct: Cerep SA (contract research organization)
Method: as §1

T1 sequence (P35372 whole entry): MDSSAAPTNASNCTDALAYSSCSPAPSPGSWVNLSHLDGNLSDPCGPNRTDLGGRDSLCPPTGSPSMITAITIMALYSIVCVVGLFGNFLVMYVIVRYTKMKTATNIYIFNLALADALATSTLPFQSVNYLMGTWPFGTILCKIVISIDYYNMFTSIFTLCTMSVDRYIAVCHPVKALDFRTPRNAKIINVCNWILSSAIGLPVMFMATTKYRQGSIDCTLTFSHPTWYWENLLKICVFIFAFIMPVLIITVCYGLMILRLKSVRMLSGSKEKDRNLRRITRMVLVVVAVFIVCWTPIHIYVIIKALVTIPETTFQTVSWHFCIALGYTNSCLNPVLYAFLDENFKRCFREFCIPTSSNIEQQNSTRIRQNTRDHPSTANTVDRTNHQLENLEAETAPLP
T2 sequence (P32300 whole entry): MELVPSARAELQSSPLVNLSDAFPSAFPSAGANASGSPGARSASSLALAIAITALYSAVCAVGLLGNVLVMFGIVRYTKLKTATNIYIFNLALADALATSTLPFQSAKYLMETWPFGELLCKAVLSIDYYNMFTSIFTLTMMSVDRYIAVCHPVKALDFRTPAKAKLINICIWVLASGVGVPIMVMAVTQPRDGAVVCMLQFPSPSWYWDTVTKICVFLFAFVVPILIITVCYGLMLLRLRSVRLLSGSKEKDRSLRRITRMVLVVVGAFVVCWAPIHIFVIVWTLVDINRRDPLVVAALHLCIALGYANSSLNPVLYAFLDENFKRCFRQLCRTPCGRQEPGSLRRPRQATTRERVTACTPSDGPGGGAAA

With “2′,6′-dimethyl-L-tyrosyl-L-1,2,3,4-tetrahydroisoquinoline-3-carbonyl-L-phenylalanyl-Nε-(1′-methyl R-D-glucuronyl)-L-lysyl-amide [EU-A178]” the “behavior in the MOP agonist assay (FIG. 11)” value (mu opioid receptor) was “potent, full agonistic behavior”, the Characterization (mu opioid receptor; MOP agonist mode and DOP antagonist mode) was “Pure MOP Ag; pure DOP antag” and the “action on the DOP receptor (FIG. 11)” value (delta2 opioid receptor) was “highly potent action as a pure antagonist”.
